US20160206610A1, “METHODS FOR TREATING AND/OR PREVENTING EMESIS AND/OR NAUSEA INCLUDING ACUTE AND/OR DELAYED NAUSEA AND/OR ACUTE EMESIS AND/OR DELAYED EMESIS” (priority 2015, published 2016)

Test: Fine particle fraction by Next Generation Impactor at 15 LPM (nebulizer solution)
Format: physicochemical
Conditions: Example 6: nebulizer solution, 0.125% w/w palonosetron chloride in sodium chloride/citrate buffer
Description: For a nebulizer solution for inhalation, a 0.125% w/w solution of palonosetron chloride is formulated in a pharmaceutically acceptable buffer for inhalation (0.85% sodium chloride, 0.062% sodium citrate, 0.019% citric acid in water). If tested through a Next Generation Impactor at 15 LPM, the fine particle fraction of palonosetron <4.7 microns is anticipated to be >20%.

O=C1c2cccc3c2[C@H](CCC3)CN1[C@@H]1CN2CCC1CC2 [palonosetron]
fine particle fraction <4.7 microns: > 20%
